The values below come from article PMC5214846 (Structure (London, England : 1993), 2016).

Where two headings read alike, the source gives them in different places.

The nature of data set [1]: Highest soluble concentration of long-chain alcohols.
In data set [2] the target is T1, ELIC (Dickeya chrysanthemi, UniProt P0C7B7). In words: Functional measurements of Xenopus laevis oocytes expressing ELIC. To be noted: for Modulation of ELIC at low agonist concentration (EC3) / Modulation of ELIC at EC20: representative traces; for Modulation of ELIC at EC20: agonist EC20.
The test system of another data set is ELIC-α1β3GABAAR. Type of data set: cell-based. As to conditions: for Modulation of ELIC-α1β3GABAAR at EC20: agonist EC20.
Data set [3] has as its target T1, ELIC. To be noted: cited from earlier work.

T1 sequence (P0C7B7 whole entry): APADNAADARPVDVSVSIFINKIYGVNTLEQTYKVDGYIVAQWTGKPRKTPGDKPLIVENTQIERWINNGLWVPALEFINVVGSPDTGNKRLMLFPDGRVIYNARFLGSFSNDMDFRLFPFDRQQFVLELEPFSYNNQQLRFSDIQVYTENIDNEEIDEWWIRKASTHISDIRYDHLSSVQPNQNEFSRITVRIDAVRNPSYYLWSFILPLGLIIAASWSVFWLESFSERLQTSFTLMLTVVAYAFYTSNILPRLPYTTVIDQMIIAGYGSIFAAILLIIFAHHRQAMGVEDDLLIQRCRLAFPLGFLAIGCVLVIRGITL

Turning to `CCCCCCCCCCO` [n-decanol], the Highest soluble concentration in data set [1] is recorded as ~ 0.3 mM. The “Inhibition of ELIC at highest soluble concentration” value at ELIC [2] (n-decanol ~0.3 mM, n-dodecanol ~0.02 mM, PPA-elicited current) is recorded as “much weaker inhibition than n-nonanol or n-hexanol”.
`OCCBr` [BrEtOH, 2-bromoethanol]: in the data set with ELIC-α1β3GABAAR, the “Modulation of ELIC-α1β3GABAAR at low agonist concentration (EC3)” value is reported as “potentiate” and the “Modulation of ELIC-α1β3GABAAR at EC20” value is on record as “some potentiation”. Further, on ELIC [2], the “Modulation of ELIC at low agonist concentration (EC3)” value is listed as “inhibition” and the “Modulation of ELIC at EC20” value was “strongly inhibit”.
For the compound `CCO` [EtOH, ethanol], in the data set with ELIC-α1β3GABAAR, the “Modulation of ELIC-α1β3GABAAR at low agonist concentration (EC3)” value was “potentiate” and the “Modulation of ELIC-α1β3GABAAR at EC20” value is reported as “no inhibition”. In addition, on ELIC [2], the “Modulation of ELIC at low agonist concentration (EC3)” value was “inhibition” and the “Modulation of ELIC at EC20” value is given as “strongly inhibit”.
Regarding `CC(C)c1cccc(C(C)C)c1O` [propofol], on ELIC [3] (through a common TMD intra-subunit binding pocket, ref Kinde et al., 2016), the “Effect on ELIC” value is on record as “inhibit”.
For the compound `FC(F)OC(Cl)C(F)(F)F` (stereo not drawn) [isoflurane], at ELIC [3] (binding to the pore at 6′ and 13′ positions, ref Chen et al., 2015), the “Effect on ELIC” value was “inhibits”.
